Results: publication PMC6943423, “Structure-Activity Study of an All-D Antimicrobial Octapeptide D2D” (Molecules, 2019)
Square brackets hold non-standard residues; d marks the D form. Peptide text beside a SMILES is read from it. d1Nal = N[C@H](Cc1cccc2ccccc12)C(=O)O; dNle = CCCC[C@@H](N)C(=O)O

Legend:
[1] = system: E. coli 25922; assay: Time-kill kinetics, E. coli; assay type: cell-based, Escherichia coli; conditions: 5 × MIC, exponentially growing cells 1 × 10^8, E. coli 25922
Description: (§1) The time kill experiments were performed by treating exponentially growing cultures with D2D and compound 5. Overnight cultures grown in MHB-II media, were diluted 1:10.000 to ensure exponentially growing cultures (8–10 generations), before cultures reached 1 × 10^8 CFU approximately OD600 = 0.1. When cultures reached 1 × 10^8 they were split into blood glass tubes containing 3 mL each and then treated with the respective drugs at the concentrations as shown in Figure 3. Sampling was performed at 0, 1, 3, 5 and 24 h, by removing 250 µL culture. Samples were spun down at 4000 G for 5 min and supernatant removed, cells were washed in 1 mL 0.9% NaCl, spun down again, before being suspended in 250 µL 0.9% NaCl. Finally, 10 fold dilution series were prepared in 0.9% NaCl. From these 10 µL were spotted (in triplicate) onto LB agar. CFU were counted after 24 h incubation at 37 °C. Experiments were performed in triplicate from individual colonies. Data analysis was performed using GraphPad prism 5 and plotted as the mean of triplicated with standard deviation.

[2] = Peptide self-assembly nanostructure in solution by SAXS; assay type: physicochemical; conditions: for nanostructure in solution (self-assembly, SAXS model): lab SAXS, 50 mM Tris buffer pH 7.4, 2.5–10 mg/mL, ambient temperature; as to outer radius of hollow nano-tubes: values in Å; as to shell thickness of hollow nano-tubes: values in Å
Description: SAXS experiments of D2D and the alanine-scan (compounds 1–8) were performed using a Bruker NANOSTAR equipped with a microfocus X-ray source (IμS Cu, InCoatec, Germany) and a VÅNTEC-2000 detector. Raw scattering data was calibrated to absolute intensity scale using water as a primary standard and radially averaged in order to obtain the 1D scattered intensity profile as a function of the scattering vector q (q = 4 π sin (θ/2)/λ), where θ is the scattering angle and λ is the X-ray wavelength of 1.54 Å. The samples were dissolved in 50 mM Tris buffer, pH 7.4 (10 mg/mL, 5 mg/mL and 2.5 mg/mL) and injected manually into a temperature-controlled quartz cell located in a vacuum chamber and measured for 180 min.
The scattering of the peptide D2D was analysed using a random polymer-like chain model:(1) Ichain(q)=ϕ·Vp·Δρ^2·Pchain(q) where ϕ is the volume fraction of the peptide, Vp is the volume of the polymer, Δρ is the excess scattering length density and Pchain(q) is the form factor of the free peptide chains given by the Debye expression for Gaussian chains:(2) gPchain(q)=2·exp[−(qRg)^2]−1+(qRg)^2/(qRg)^4 where Rg is the radius gyration of the peptide chains.
The scattering for compounds 2 and 7 was analysed using a rectangular sheet like model:(3) Isheet(q)=ϕ·Vp·Δρ^2·Np·Psheet(q)
Under the assumption that the length of the peptide sheets are much greater than the lateral dimension, i.e., c >> a, b, the form factor Psheet(q) is given by (4) Psheet(q)=Fc(q)1/2π∫02πAsheet(q, α)^2dα where the amplitude is given by (5) Asheet(q,α)=sin(qb cos(α)/2)/qb cos(α)/2· sin(qa sin(α)/2) /qa sin(α)/2) and (6) Fc(q)=(2 Si(qc)/(qc)−4 sin^2(qc/2)/(qc)^2 where Si(x)=∫0xt^−1sint dt .
The expression for the absolute scattering intensity, from this structure can be written as:(7) Inanotube(q)=ϕ·P·Vtot·Δρ^2·P(q)L·A(q)cs2·DW(q) where ϕ is the volume fraction of the peptide, P is the aggregation number given by P π(Ro2−Ri2)L/Vp where Vp is the volume of a peptide chain, Ro is the outer radius and Ri is the inner radius of the tubes, and L is the length. A(q)cs2 is given by:(8) A(q)cs2=Ro2A(q,Rc)−Rin2A(q,Ri)/(Ro2−Ri2) where A(q,x)=2J1(q·x)/(q·x) and J1(x) is the first order Bessel function.
The longitudinal form factor P(q)L is given by:(9) P(q)L=2 Si(QL)/QL −4 sin(sin^2(QL/2)/(QL)^2 where L is the length of the nanotubes and Si(x) is the Sine-function.
In addition, we introduced a slight distribution in the inner radius for possible shape fluctuations, and a Debye Waller factor, DW(q) = exp(−q^2 σ^2), describing possible surface roughness of the inner and outer wall.

[3] = Lipid-peptide interaction by synchrotron SAXS; conditions: SAXS fit parameter, fit error < 5%
From the text: For preparation of unilamellar lipid vesicles, synthetic DMPC (1,2-dimyristoyl-sn-glycero-3-phosphocholine), DMPG (1,2-dimyristoyl-sn-glycero-3-phospho-(10-rac-glycerol)), and DMPE-PEG (1,2-dimyristoyl-sn-glycero-3-phosphoethanolamine-N-[methoxy(polyethylene glycol)-2000]) (from Avanti Polar Lipids) were used in the molar ratio 9:7.5:2.5. The lipids were first dissolved in a 1:3 methanol:chloroform solution, and then the organic solvents were removed completely under vacuum using a Heidolph rotary evaporator with a Vacuubrand vacuum pump. The resulting lipid film was hydrated with 50 mM Tris buffer, pH 7.4, for at least one hour at 35 °C. After sonication for 10 min, the lipid dispersions were extruded through a 100 nm pore diameter polycarbonate filter (21 times) using an Avanti mini-extruder fitted with two 1 mL airtight syringes. Immediately before the SAXS experiment, a peptide solution with the adequate concentration for the target lipid:peptide ratio was mixed 1:1 with the lipid solution (1:1) using a micropipette.
SAXS experiments of the peptide-lipid mixes were performed at the automated BM29 bioSAXS beamline at the European Synchrotron Radiation Facility (ESRF) in Grenoble, France. The data was obtained using an energy of 12.5 keV and a detector distance of 2.87 m, covering a q range of about 0.0047 Å^−1 to 0.5 Å^−1. The data set was calibrated to an absolute intensity scale using water as a primary standard. 40 µL samples were run through a capillary using the flow mode of the automated sample changer. SAXS data was collected in ten successive frames of 0.5 s each to monitor radiation damage and the data reduction was done using the standard tool at BM29 [37].
The SAXS results of the lipid-peptide mixes were analysed using the theoretical model described in detail in [29]. In short, the model provides a detailed description of the membrane by dividing into probability functions for each component (lipid sub-units/peptide) across the bilayer.

[4] = system: human red blood cells; assay: Hemolytic activity; assay type: cell-based
Description: The percentage of hemolysis at 150 μM was determined for all compounds as previously described. Briefly, two-fold serial dilutions (2.35 to 150 μM) of compounds in PBS were mixed with a 0.5% v/v suspension of fresh human red blood cells (RBC) in the same buffer. After 1 h incubation at 37 °C, plates were centrifuged and aliquots of the supernatants were transferred to clear ELISA plates. Absorbance at 414 nm was determined and normalised with respect to a negative (PBS, 0%) and positive (melittin, 100%) control.

[5] = system: A. baumannii 19606; assay: Time-kill kinetics, A. baumannii; assay type: cell-based, Acinetobacter baumannii; conditions: 5 × MIC, exponentially growing cells 1 × 10^8, A. baumannii 19606
Description: as §1

[6] = system: S. aureus 29213; assay: Time-kill kinetics, S. aureus; assay type: cell-based, Staphylococcus aureus; conditions: for reduction in viable cells: 5 × MIC, exponentially growing cells 1 × 10^8, S. aureus 29213
Description: as §1

[7] = system: E. coli (ATCC 25922); assay type: cell-based, Escherichia coli; conditions: broth microdilution, MHB-II, ~5 × 10^5 CFU, 18–20 h at 37 °C, triplicate
Description: (§2) E. coli (ATCC 25922), S. aureus (ATCC 29213), P. aeruginosa (ATCC 27853) and A. baumannii (ATCC 19606).
(§3) Antimicrobial susceptibility testing was performed by broth dilution in MHB-II media using a protocol adapted from, with minor modifications. Briefly, the compounds were prepared in standard stocks of 1 mg/mL in milli-Q H2O. Antimicrobial dilutions were prepared in two times the final concentration (128 µg/mL) of the compounds. Bacterial suspensions were prepared from overnight cultures (MHB-II) by diluting to OD600 = 0.001 (Approximately 1 × 10^6 CFU). An amount of 100 µL MHB-II was transferred to all wells in column 1–9, excluding the antibiotics well (A1–A9). An amount of 200 µL of MHB-II was transferred to all wells in column 10–12. An amount of 200 µL peptide stock was transferred to each well from A1–9. A 2-fold serial dilution from row A–G was obtained by transferring 100 µL from row A to B, and continued until row G. Resulting in final concentration range of peptides: 128, 64, 32, 16, 8, 4, and 2 (µg/mL). Finally, 100 µL bacterial suspension (1 × 10^6 CFU) were added to all wells giving a final bacterial inoculum of approximately 5 × 10^5 colony forming units (CFU). The plates were incubated for 18–20 h at 37 °C.

[8] = system: P. aeruginosa (ATCC 27853); assay type: cell-based, Pseudomonas aeruginosa; conditions: broth microdilution, MHB-II, ~5 × 10^5 CFU, 18–20 h at 37 °C, triplicate
Description: as §2, §3

[9] = system: A. baumannii (ATCC 19606); assay type: cell-based, Acinetobacter baumannii; conditions: broth microdilution, MHB-II, ~5 × 10^5 CFU, 18–20 h at 37 °C, triplicate
Description: as §2, §3

[10] = system: S. aureus (ATCC 29213); assay type: cell-based, Staphylococcus aureus; conditions: broth microdilution, MHB-II, ~5 × 10^5 CFU, 18–20 h at 37 °C, triplicate
Description: as §2, §3

[11] = cited from earlier work
From the text: (§4) In the present study, we investigated all-D-peptides. […] For example, Mana ...

[12] = system: P. aeruginosa 27853; assay: Time-kill kinetics, P. aeruginosa; assay type: cell-based, Pseudomonas aeruginosa; conditions: 5 × MIC, exponentially growing cells 1 × 10^8, P. aeruginosa 27853
Description: as §1

[13] = system: S. aureus; conditions: cited from earlier work
From the text: as §4

[14] = SAXS nanotube model fit, 50 mM Tris pH 7.4, 2.5–10 mg/mL
[15] = fraction peptide 1:10 (peptide 5: joint SAXS/SANS fit)

Compound | reduction in number of viable cells [1] | outer radius of hollow nano-tubes [2, 14] [Å] | shell thickness of hollow nano-tubes [2, 14] [Å] | nanostructure in solution (self-assembly, SAXS model) [2] | ffree peptide ([3]; fraction peptide 1:5) | ffree peptide [3, 15] | ffree peptide ([3]; fraction peptide 1:20) | %H (% Hemolysis at 150 µM) ([4]; red cells of human, 1 h, 150) [%] | reduction in number of viable cells [5] | reduction in viable cells [6] [log] | reduction in CFU/mL ([6]; S. aureus, concentration not stated (conclusions)) [log] | Minimum Inhibitory Concentration E.C. [7] [µg/mL] | Minimum Inhibitory Concentration P.A. [8] [µg/mL] | %H (% Hemolysis at 150 µM) ([4]; 150 µM in PBS, 0.5% v/v fresh human RBC, 1 h at 37 °C, absorbance 414 nm, normalised to PBS (0%) and melittin (100%)) [%] | Minimum Inhibitory Concentration A.B. [9] [µg/mL] | Minimum Inhibitory Concentration S.A. [10] [µg/mL] | activity relative to its L-enantiomer (more active) [11] | killing of viable cells [12] [log] | antimicrobial activity against S. aureus [13] [µg/mL]
CCCC[C@@H](NC(=O)[C@@H](CCCCN)NC(=O)[C@@H](Cc1cccc2ccccc12)NC(=O)[C@@H](C)NC(=O)[C@@H](Cc1ccccc1)NC(=O)[C@@H](Cc1cccc2ccccc12)NC(=O)[C@@H](CCCCN)NC(=O)[C@H](N)CCCCN)C(N)=O [Compound 5, kk(1-nal)fa(1-nal)k(nle)-NH2] (H-[dK][dK][d1Nal][dF][dA][d1Nal][dK][dNle]-NH2) | 4–5 logs | 33 | 4 | hollow nano-tubes | 0.4 | 0.5 | 0.5 | 47 | 4–5 logs | 5 | > 3 | – | – | – | – | – | – | – | –
CCCC[C@@H](NC(=O)[C@@H](CCCCN)NC(=O)[C@@H](Cc1cccc2ccccc12)NC(=O)[C@@H](CCCCN)NC(=O)[C@H](N)Cc1ccccc1)C(N)=O [Compound 29, fk(1-nal)k(nle)-NH2] (HELM PEPTIDE1{[dF].[dK].[O=C([C@@H](Cc1cccc2ccccc12)N[*:1])[*:2]].[dK].[CCCC[C@@H](N[*:1])C(=O)[*:2]].[am]}$$$$V2.0; N-terminus assumed) | – | – | – | – | – | – | – | – | – | – | – | >128 | 128 | 12 | >128 | >128 | – | – | –
CCCC[C@@H](NC(=O)[C@@H](CCCCN)NC(=O)[C@@H](Cc1cccc2ccccc12)NC(=O)[C@@H](CCCCN)NC(=O)[C@@H](Cc1ccccc1)NC(=O)[C@@H](Cc1cccc2ccccc12)NC(=O)[C@@H](CCCCN)NC(=O)[C@H](N)CCCCN)C(N)=O [Compound D2D, kk(1-nal)fk(1-nal)k(nle)-NH2] (H-[dK][dK][d1Nal][dF][dK][d1Nal][dK][dNle]-NH2) | 4–5 logs | – | – | random unstructured polymer-like chains | 0.7 | 0.51 | 0.5 | 23 | 4–5 logs | 5 | – | – | – | – | – | – | approximately four-fold | 1 | –
KLKLLLLLKLK-NH2 [sapesin B analog (L-form), literature peptide of Manabe et al] | – | – | – | – | – | – | – | – | – | – | – | – | – | – | – | – | – | – | 16
